The results in this text go back to patent publication US9062057B2, “CCR5 antagonists for treating HIV” (Purdue Research Foundation, priority 2010, dated 2015).

The target in the assay is CCR5 chemokine receptor (Homo sapiens, UniProt P51681). Briefly: Inhibition Data (IC50; no method described). The following applies: assay not described, read-out: Activity (*) (IC50 class).

Bounds are passed on as bounds.

Chain of CCR5 chemokine receptor (P51681 whole entry): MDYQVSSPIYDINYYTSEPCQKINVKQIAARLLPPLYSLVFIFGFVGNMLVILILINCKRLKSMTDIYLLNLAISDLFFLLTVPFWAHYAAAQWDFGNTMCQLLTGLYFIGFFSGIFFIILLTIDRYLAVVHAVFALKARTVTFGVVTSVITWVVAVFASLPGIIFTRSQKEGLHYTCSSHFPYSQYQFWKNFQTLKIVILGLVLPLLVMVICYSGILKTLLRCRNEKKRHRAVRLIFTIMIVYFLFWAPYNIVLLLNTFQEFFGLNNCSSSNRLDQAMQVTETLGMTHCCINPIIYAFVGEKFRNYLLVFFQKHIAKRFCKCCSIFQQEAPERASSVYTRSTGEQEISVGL

In general, IC50 refers to the concentration that inhibits the measured activity by half. On to `CN(C[C@@](C)(CCN1CC[C@@H]2[C@@H](CCN2C(=O)OC(C)(C)C)C1)c1ccccc1)S(=O)(=O)c1ccccc1` [Example 1], for which the 50% inhibitory concentration (IC50) was less than 1 nM.

As to `CN(C[C@@](C)(CCN1CC[C@H]2[C@H](CCN2C(=O)OC(C)(C)C)C1)c1ccccc1)S(=O)(=O)c1ccccc1` [Example 2], the concentration for half-maximal inhibition (IC50) is less than 1000 nM.

As for `CN(C[C@@](C)(CCN1CC[C@H]2[C@H](CCN2C(=O)OC(C)(C)C)C1)c1ccccc1)S(=O)(=O)c1ccc(CNC(=O)O[C@H]2CCOC2)cc1` [Example 3], the 50% inhibitory concentration (IC50) is less than 1000 nM.

With `CN(C[C@@](C)(CCN1CC[C@@H]2[C@@H](CCN2C(=O)OC(C)(C)C)C1)c1ccccc1)S(=O)(=O)c1ccc(CNC(=O)O[C@H]2CCOC2)cc1` [Example 4], the IC50 was less than 1 nM.

As for `CN(C[C@@](C)(CCN1C2CCC1CC(NC(=O)OCc1ccccc1)C2)c1ccccc1)S(=O)(=O)c1ccccc1` (stereo partly drawn) [Example 5], the IC50 is less than 100 nM.

For `CN(C[C@@](C)(CCN1C2CCC1CC(NC(=O)OCc1ccccc1)C2)c1ccccc1)S(=O)(=O)c1ccccc1` (stereo partly drawn) [Example 6], the IC50 is less than 100 nM.

Consider `CN(C[C@@](C)(CCN1CC[C@H]2CN(C(=O)OCc3ccccc3)C[C@H]2C1)c1ccccc1)S(=O)(=O)c1ccccc1` [Example 7], for which the IC50 was less than 100 nM.

Turning to `CN(C[C@@](C)(CCN1CC[C@H]2CNC[C@H]2C1)c1ccccc1)S(=O)(=O)c1ccccc1` [Example 8], the IC50 is less than 1000 nM.

Consider `CN(C[C@@](C)(CCN1CC[C@H]2CN(C(=O)OC(C)(C)C)C[C@H]2C1)c1ccccc1)S(=O)(=O)c1ccccc1` [Example 9], for which the half-maximal inhibitory concentration (IC50) was less than 100 nM.

`CN(C[C@@](C)(CCN1C[C@H]2CCN(C(=O)OC(C)(C)C)C[C@H]2C1)c1ccccc1)S(=O)(=O)c1ccccc1` [Example 10]: the half-inhibitory concentration (IC50) is less than 100 nM.

`CN(C[C@@](C)(CCN1CC[C@H]2CN(C(=O)OCc3ccccc3)C[C@H]2C1)c1ccccc1)S(=O)(=O)c1ccccc1` [Example 11]: the half-maximal inhibitory concentration (IC50) is less than 100 nM.

As to `C[C@@H](NC(=O)N1CC2CCN(CC[C@](C)(CN(C)S(=O)(=O)c3ccccc3)c3ccccc3)C[C@@H]2C1)c1ccccc1` (stereo partly drawn) [Example 12], the half-maximal inhibitory concentration (IC50) is less than 100 nM.

Regarding `C[C@@H](NC(=O)N1CC2CCN(CC[C@](C)(CN(C)S(=O)(=O)c3ccccc3)c3ccccc3)C[C@@H]2C1)c1ccccc1` (stereo partly drawn) [Example 13], the IC50 was less than 100 nM.

For the compound `C[C@H](NC(=O)N1C[C@H]2CN(CC[C@](C)(CN(C)S(=O)(=O)c3ccccc3)c3ccccc3)CC[C@H]2C1)c1ccccc1` [Example 14], the IC50 is less than 1000 nM.

As for `C[C@H](c1ccccc1)N(C)C(=O)N1C[C@H]2CN(CC[C@](C)(CN(C)S(=O)(=O)c3ccccc3)c3ccccc3)CC[C@H]2C1` [Example 15], the IC50 is less than 100 nM.

In the case of `Cc1nnc(C(C)C)n1C1CC2CCC(C1)N2CC[C@](C)(CN(C)S(=O)(=O)c1ccccc1)c1ccccc1` (stereo partly drawn) [Example 16], the half-maximal inhibitory concentration (IC50) is less than 10 nM.

`C[C@H](NC(=O)N1CC2CN(CC[C@](C)(CN(C)S(=O)(=O)c3ccccc3)c3ccccc3)CC[C@H]2C1)c1cccc2ccccc12` (stereo partly drawn) [Example 17]: the IC50 was less than 1000 nM.

Take `Cc1ccc(S(=O)(=O)N2C[C@H]3CN(CC[C@](C)(CN(C)S(=O)(=O)c4ccccc4)c4ccccc4)CC[C@H]3C2)cc1` [Example 18]: the IC50 is less than 1000 nM.

For the compound `Cc1nc(COC(=O)N2C[C@H]3CN(CC[C@](C)(CN(C)S(=O)(=O)c4ccccc4)c4ccccc4)CC[C@H]3C2)c(C)o1` [Example 19], the IC50 is less than 1000 nM.

In the case of `CC(C)COC(=O)NC1CC2CCC(C1)N2CC[C@](C)(CN(C)S(=O)(=O)c1ccccc1)c1ccccc1` (stereo partly drawn) [Example 20], the IC50 is less than 100 nM.

Turning to `CN(C[C@@](C)(CCN1C2CCC1CC(NC(=O)O[C@H]1CCOC1)C2)c1ccccc1)S(=O)(=O)c1ccccc1` (stereo partly drawn) [Example 21], the IC50 was less than 100 nM.

`CN(C[C@@](C)(CCN1CC2CCN(C(=O)OC(C)(C)C)C2C1)c1ccccc1)S(=O)(=O)c1ccccc1` (stereo partly drawn) [Example 22]: the IC50 is less than 1000 nM.

As for `CN(CC(C)(CCN1CCC2C(CCN2C(=O)OC(C)(C)C)C1)c1ccccc1)S(=O)(=O)c1ccccc1` (stereo not drawn) [Example 25], the IC50 was less than 10 nM.

For `CC(C)(C)OC(=O)N1CCC2CN(C(=O)[C@H](Cc3ccccc3)NC(=O)OCc3ccccc3)CCC21` (stereo partly drawn) [Example 26], the half-inhibitory concentration (IC50) is less than 1000 nM.

Regarding `CC(C)(C)OC(=O)N1CCC2CN(C(=O)[C@@H](N)Cc3ccccc3)CCC21` (stereo partly drawn) [Example 27], the IC50 was less than 1000 nM.

Take `CN(CC(C)(CCN1CCC2C(CCN2C(=O)OC2CO[C@H]3OCCC23)C1)c1ccccc1)S(=O)(=O)c1ccccc1` (stereo partly drawn) [Example 28]: the IC50 was less than 100 nM.

Regarding `CN(CC(C)(CCN1CCC2C(CCN2C(=O)OC2CCOC2)C1)c1ccccc1)S(=O)(=O)c1ccccc1` (stereo not drawn) [Example 29], the IC50 was less than 1000 nM.

As to `CO[C@@](CCN1CCC2C(CCN2C(=O)OC(C)(C)C)C1)(CN(C)S(=O)(=O)c1ccccc1)c1ccccc1` (stereo partly drawn) [Example 30], the half-maximal inhibitory concentration (IC50) is less than 1000 nM.

Consider `CO[C@](CCN1CCC2C(CCN2C(=O)OC(C)(C)C)C1)(CN(C)S(=O)(=O)c1ccccc1)c1ccccc1` (stereo partly drawn) [Example 31], for which the IC50 was less than 1000 nM.

As for `CN(CC(C)(CCN1CCC2C(CCN2C(=O)OC(C)(C)C)C1)c1ccccc1)S(=O)(=O)c1ccccc1` (stereo not drawn) [Example 32], the IC50 is less than 100 nM.

In the case of `CN(CC(C)(CCN1CCC2C(CCN2C(=O)OC(C)(C)C)C1)c1ccccc1)S(=O)(=O)c1ccc(C(=O)OCc2ccccc2)cc1` (stereo not drawn) [Example 33], the IC50 is less than 1000 nM.

Turning to `CN(CC(C)(CCN1CCC2C(CCN2C(=O)OC(C)(C)C)C1)c1ccccc1)S(=O)(=O)c1ccc(C(=O)O)cc1` (stereo not drawn) [Example 34], the 50% inhibitory concentration (IC50) is less than 100 nM.

For the compound `CC(=O)OC(OC(C)=O)c1ccc(S(=O)(=O)N(C)CC(C)(CCN2CCC3C(CCN3C(=O)OC(C)(C)C)C2)c2ccccc2)cc1` (stereo not drawn) [Example 35], the half-inhibitory concentration (IC50) was less than 100 nM.

As to `COC(OC)c1ccc(S(=O)(=O)N(C)CC(C)(CCN2CCC3C(CCN3C(=O)OC(C)(C)C)C2)c2ccccc2)cc1` (stereo not drawn) [Example 36], the IC50 was less than 100 nM.

Regarding `CN(CC(C)(CCN1CCC2C(CCN2C(=O)OC(C)(C)C)C1)c1ccccc1)S(=O)(=O)c1ccc(CNC(=O)OCc2ccccc2)cc1` (stereo not drawn) [Example 37], the IC50 was less than 1000 nM.

For the compound `CC(=O)NCc1ccc(S(=O)(=O)N(C)CC(C)(CCN2CCC3C(CCN3C(=O)OC(C)(C)C)C2)c2ccccc2)cc1` (stereo not drawn) [Example 38], the IC50 is less than 100 nM.

Consider `CN(CC(C)(CCN1CCC2C(CCN2C(=O)OC(C)(C)C)C1)c1ccccc1)S(=O)(=O)c1ccc(CNC(=O)OC(C)(C)C)cc1` (stereo not drawn) [Example 39], for which the concentration for half-maximal inhibition (IC50) was less than 1000 nM.

For the compound `CN(CC(C)(CCN1CCC2C(CCN2C(=O)OC(C)(C)C)C1)c1ccccc1)S(=O)(=O)c1ccc(CNC(=O)O[C@H]2CCOC2)cc1` (stereo partly drawn) [Example 40], the IC50 is less than 100 nM.

As to `CN(CC(C)(CCN1CCC2C(CCN2C(=O)OC(C)(C)C)C1)c1ccccc1)S(=O)(=O)c1ccc(CN)cc1` (stereo not drawn) [Example 41], the IC50 was less than 1000 nM.

Consider `CN(C[C@@](C)(CCN1CCC2C(CCN2C(=O)OC(C)(C)C)C1)c1ccccc1)S(=O)(=O)c1ccccc1` (stereo partly drawn) [Example 43], for which the 50% inhibitory concentration (IC50) was less than 100 nM.

Take `CN(C[C@@](C)(CCN1CC[C@@H]2[C@@H](CCN2C(=O)OC(C)(C)C)C1)c1ccccc1)S(=O)(=O)c1ccccc1` [Example 44]: the IC50 was less than 10 nM.

Take `CN(C[C@@](C)(CCN1CC[C@@H]2[C@@H](CCN2C(=O)OC(C)(C)C)C1)c1ccccc1)S(=O)(=O)c1ccccc1` [Example 46]: the IC50 was less than 1000 nM.

Consider `CC1CN(CC[C@](C)(CN(C)S(=O)(=O)c2ccccc2)c2ccccc2)CCC12C=Cc1ccccc12` (stereo partly drawn) [Example 48], for which the 50% inhibitory concentration (IC50) is less than 1000 nM.

Take `COc1ccc(C(C)(CCN2CCC3C(CCN3C(=O)OC(C)(C)C)C2)CN(C)S(=O)(=O)c2ccccc2)cc1` (stereo not drawn) [Example 49]: the half-maximal inhibitory concentration (IC50) is less than 100 nM.

For the compound `COc1cccc(C(C)(CCN2CCC3C(CCN3C(=O)OC(C)(C)C)C2)CN(C)S(=O)(=O)c2ccccc2)c1` (stereo not drawn) [Example 50], the IC50 was less than 1000 nM.

As for `CN1N=C2CCN(CC[C@](C)(CN(C)S(=O)(=O)c3ccccc3)c3ccccc3)CC2(C)C1=O` (stereo partly drawn) [Example 51], the IC50 is less than 1000 nM.

Take `CN1N=C2CCN(CC[C@](C)(CN(C)S(=O)(=O)c3ccccc3)c3ccccc3)CC2(Cc2ccccc2)C1=O` (stereo partly drawn) [Example 52]: the IC50 is less than 1000 nM.

For `COC(=O)[C@@H](CCSC)NC(=O)C1CCN(CC[C@](C)(CN(C)S(=O)(=O)c2ccccc2)c2ccccc2)CC1` [Example 56], the IC50 was less than 1000 nM.

In the case of `CN(C[C@@](C)(CCN1CCC2(CC1)CCN(C(=O)OC(C)(C)C)C2)c1ccccc1)S(=O)(=O)c1ccccc1` [Example 58], the IC50 was less than 1000 nM.

In the case of `CN(C[C@@](C)(CCN1CC2CN(C(=O)OC(C)(C)C)[C@H]2C1)c1ccccc1)S(=O)(=O)c1ccccc1` (stereo partly drawn) [Example 64], the 50% inhibitory concentration (IC50) was less than 1000 nM.

Take `CN(C[C@@](C)(CCN1CCC2(CCCN2C(=O)OC(C)(C)C)CC1)c1ccccc1)S(=O)(=O)c1ccccc1` [Example 65]: the IC50 was less than 1000 nM.

As to `CN(C[C@@](C)(CCNC1C2CCC1CN(C(=O)OC(C)(C)C)C2)c1ccccc1)S(=O)(=O)c1ccccc1` (stereo partly drawn) [Example 66], the IC50 is less than 1000 nM.

For the compound `CN(C[C@@](C)(CCNC1CC2CCC(C1)N2C(=O)OC(C)(C)C)c1ccccc1)S(=O)(=O)c1ccccc1` (stereo partly drawn) [Example 67], the IC50 is less than 1000 nM.

`CN(C[C@@](C)(CCN1CC[C@H]2CNC(=O)[C@H]2C1)c1ccccc1)S(=O)(=O)c1ccccc1` [Example 69]: the IC50 was less than 1000 nM.

Regarding `CN(C[C@@](C)(CCN1C2CCC1CC(NC(=O)OC(C)(C)C)C2)c1ccccc1)S(=O)(=O)c1ccccc1` (stereo partly drawn) [Example 70], the half-inhibitory concentration (IC50) was less than 1000 nM.

In the case of `CN(C[C@@](C)(CCN1CC[C@H]2OC(C)(C)O[C@H]2C1)c1ccccc1)S(=O)(=O)c1ccccc1` [Example 71], the IC50 is less than 1000 nM.

Turning to `CC(C)[C@H](NC(=O)OCc1ccccc1)C(=O)N1CC2CN(C(=O)OC(C)(C)C)CC[C@H]2C1` (stereo partly drawn) [Example 72], the IC50 is less than 1000 nM.

`CC(C)(C)OC(=O)N1CC[C@H]2CN(C(=O)O[C@H]3CCOC3)C[C@H]2C1` [Example 74]: the IC50 is less than 1000 nM.

For the compound `CN(C[C@@](C)(CCN1CC[C@H]2CN(C(=O)OCc3ccccc3)C[C@H]2C1)c1ccccc1)S(=O)(=O)c1ccccc1` [Example 75], the IC50 is less than 1000 nM.

In the case of `CN(C[C@@](C)(CCN1CC[C@H]2CN(C(N)=O)C[C@H]2C1)c1ccccc1)S(=O)(=O)c1ccccc1` [Example 76], the IC50 is less than 1000 nM.
